Assay results as given in US12258337B2, “Bicyclic CX3CR1 receptor agonists” (Board of Regents, The University of Texas System, priority 2019, dated 2025).

Key:
Type in all cases: cell-based
hCX3CR1 [1] = biological target: T1, hCX3CR1 (Homo sapiens, UniProt P49238); assay: ChAMPion assay (CHO ChAMPion/CX3CR1 K1.6, cAMP/CNG channel, photoprotein luminescence); parameters: expressed in transfected cells; stably expresses a Ca2+ sensitive photo-protein; settings: ChAMPion assay, CHO ChAMPion/CX3CR1 K1.6, Forskolin 3 μM; read-out: hCX3CR1 agonism EC50
T1 sequence (P49238 1-355): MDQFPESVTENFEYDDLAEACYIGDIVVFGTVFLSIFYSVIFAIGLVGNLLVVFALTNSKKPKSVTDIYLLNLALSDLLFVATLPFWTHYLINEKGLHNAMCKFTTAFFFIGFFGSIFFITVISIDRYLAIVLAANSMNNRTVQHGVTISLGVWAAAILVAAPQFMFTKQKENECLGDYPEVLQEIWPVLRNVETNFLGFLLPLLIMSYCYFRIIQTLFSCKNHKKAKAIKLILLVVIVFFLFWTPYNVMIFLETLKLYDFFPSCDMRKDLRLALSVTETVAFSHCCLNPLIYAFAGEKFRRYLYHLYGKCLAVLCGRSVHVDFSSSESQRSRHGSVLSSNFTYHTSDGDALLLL
Method: Buffers and reagents. PBS (D-PBS without calcium and magnesium; EuroClone); Trypsin (Trypsin 0.05%, EDTA 0.02% in PBS; EuroClone); DMSO (Sigma); Tyrode buffer Ca^2+ free: in-house solution (130 mM NaCl, 5 mM KCl, 1 mM MgCl^2, 5 mM NaHCO3, 20 mM HEPES (pH 7.4); sterile filtered and autoclaved); Tyrode buffer 10 mM Ca^2+: in-house solution (130 mM NaCl, 5 mM KCl, 10 mM CaCl2), 1 mM MgCl2, 5 mM NaHCO3, 20 mM HEPES, in water at pH 7.4, sterile filtered); Coelenterazine, native (Biosynth); stock 10 mM; Agonist: Recombinant Human Fractalkine (CX3CL1) (PeproTech); stock: 10 μM in standard Tyrode buffer/BSA 01%; stored at −20° C.
Cell line. The final clone for the hCX3CR1 assay was CHO ChAMPion/CX3CR1 K1.6. ChAMPion technology is based on the co-expression of a Ca^2+ sensitive photoprotein and of a cyclic nucleotide-gated (CNG) channel acting as a cAMP biosensor in a CHO-K1 cell line. CNG channels are non-selective ligand gated cation channels that can be opened by the direct interaction with either cAMP or cGMP, at the intracellular C-terminus site of the channel. Channel opening allows the flux of extracellular calcium into the cell cytoplasm and its transient elevation can be recorded by means of several different calcium indicators. In the chAMPion system, the CNG channel has been modified to display sensitivity to cAMP levels in the physiological range. In addition the calcium influx through the opened channel is immediately detected by the recording of the photoprotein-emitted flash type luminescence signal.
The chAMPion cell line system can monitor the activation of transfected Gαi-coupled receptors, which elicit changes in 3,‘5’-adenosine cyclic monophosphate (cAMP) levels, which in turn is responsible for CNG opening and consequent Ca^2+ influx.
Assay protocol. Experiments were performed in 384 MTP format. Cells were seeded at 10,000 cells/well in 25 μL/well complete growth medium without selection antibiotics in 384-well plates. Twenty-four hours later, cells were assayed for the response to various compounds using the Ca^2+ sensitive photo-protein stably expressed in the cells as readout.
The experiment was performed in a 384-well format according to the following procedure: • 24h after seeding, pre-incubate the cells at room temperature for 1 hour. • Then remove the culture medium. • Load cells with 20 μL/well of Ca^2+ free tyrode buffer+ceolenterazine 5 μM. • Incubate cell plates for 4 hours at RT. • 10 μl/well of 3× concentrated compounds in Ca^2+ free tyrode buffer+Forskolin 9 μM (final Forskolin concentration=3 μM) are applied to the cells (at 10 μl/s). Ten minutes later a second injection is performed: 10 μl/well of Ca^2+ free tyrode buffer+BSA 0.04% (final BSA concentration=0.01%). Twenty minutes later a third injection is performed: 20 μl/well of 10 mM Ca^2+ tyrode buffer (final Ca^2+ concentration was 3.3 mM) and luminescence is recorded for 90 seconds.
Data from FLIPRTETRA measurements are analyzed with the Genedata Screener© software.

hCX3CR1 [2] = biological target: T1, hCX3CR1; assay: Ga16 assay, CX3CR1 agonism, Ca2+ sensitive photo-protein readout (FLIPRTETRA); parameters: expressed in transfected cells; stably expresses a Ca2+ sensitive photo-protein; settings: human CX3CR1 cell line
How it was run: (§1)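 Cells expressing human, mouse or rat CX3CR1 with a stably expressed Ca2+-sensitive photoprotein were loaded with 10 μM coelenterazine in tyrode buffer pH 7.4 for 3 h at room temperature. Agonist-mode luminescence kinetics were recorded for 90 s after compound injection on FLIPRTETRA. Dose-response runs were done in quadruplicate, with fractalkine as the reference agonist.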

rCX3CR1 = biological target: T2, rCX3CR1 (Rattus norvegicus, UniProt P35411); assay: as above; settings: rat CX3CR1 cell line
T2 construct: expressed in transfected cells; stably expresses a Ca2+ sensitive photo-protein
T2 sequence (P35411 1-354): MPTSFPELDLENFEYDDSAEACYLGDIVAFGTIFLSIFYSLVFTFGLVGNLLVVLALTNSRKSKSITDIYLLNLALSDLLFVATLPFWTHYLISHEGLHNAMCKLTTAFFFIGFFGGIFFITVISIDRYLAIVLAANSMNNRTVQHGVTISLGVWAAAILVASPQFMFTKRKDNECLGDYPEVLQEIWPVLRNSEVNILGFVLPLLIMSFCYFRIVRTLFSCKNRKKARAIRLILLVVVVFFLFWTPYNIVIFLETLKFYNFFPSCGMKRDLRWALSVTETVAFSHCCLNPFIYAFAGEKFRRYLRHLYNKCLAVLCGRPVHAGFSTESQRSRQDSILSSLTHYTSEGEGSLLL
How it was run: as §1

mCX3CR1 = biological target: T3, mCX3CR1 (Mus musculus, UniProt Q9Z0D9); assay: as above; settings: mouse CX3CR1 cell line
T3 construct: expressed in transfected cells; stably expresses a Ca2+ sensitive photo-protein
T3 sequence (Q9Z0D9 1-354): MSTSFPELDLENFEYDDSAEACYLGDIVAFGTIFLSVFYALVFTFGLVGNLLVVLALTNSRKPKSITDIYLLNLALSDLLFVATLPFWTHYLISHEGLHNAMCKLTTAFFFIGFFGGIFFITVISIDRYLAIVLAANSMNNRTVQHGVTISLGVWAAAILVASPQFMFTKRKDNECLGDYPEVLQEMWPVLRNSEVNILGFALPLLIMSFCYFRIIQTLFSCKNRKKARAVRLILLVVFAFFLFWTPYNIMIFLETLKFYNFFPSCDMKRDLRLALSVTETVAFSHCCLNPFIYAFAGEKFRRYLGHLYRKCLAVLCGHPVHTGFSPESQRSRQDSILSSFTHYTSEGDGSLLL
How it was run: as §1

For `CN(C)CC1(CNC(=O)c2cc3c(s2)CCCCCC3)Cc2ccccc2C1` [Example 10, N-[[2-[(dimethylamino)methyl]-1,3-dihydroinden-2-yl]methyl]-4,5,6,7,8,9-hexahydrocycloocta[b]thiophene-2-carboxamide], the EC50 (hCX3CR1 [1]) was 12.2 µM, the EC50 (hCX3CR1 [2]) was 20.5 µM and the EC50 (rCX3CR1) was 18.8 µM. The EC50 (mCX3CR1) was 19.4 µM.
`O=C(NCC1(CN2CCCC2)Cc2ccccc2C1)c1cc2c(s1)CCCCCC2` [Example 11, N-[[2-(pyrrolidin-1-ylmethyl)-1,3-dihydroinden-2-yl]methyl]-4,5,6,7,8,9-hexahydrocycloocta[b]thiophene-2-carboxamide] showed an EC50 (hCX3CR1 [1]) of 6.3 µM, an EC50 (hCX3CR1 [2]) of 20.5 µM and an EC50 (rCX3CR1) of 19.6 µM. For the same molecule, the EC50 (mCX3CR1) was 15.4 µM.
For `CN(CCO)CC1(CNC(=O)c2cc3c(s2)CCCCC3)CCCC1` [Example 34, N-[[1-[[2-hydroxyethyl(methyl)amino]methyl]cyclopentyl]methyl]-5,6,7,8-tetrahydro-4H-cyclohepta[b]thiophene-2-carboxamide], the EC50 (hCX3CR1 [1]) was 36.5 µM, the EC50 (hCX3CR1 [2]) was 13.7 µM and the EC50 (rCX3CR1) was 12.9 µM. The EC50 (mCX3CR1) was 46.9 µM.
Molecule `CCC(CC)(CNC(=O)c1cc2c(s1)CCCCCC2)CN1CCCC1` [Example 9, N-[2-ethyl-2-(pyrrolidin-1-ylmethyl)butyl]-4,5,6,7,8,9-hexahydrocycloocta[b]thiophene-2-carboxamide] has an EC50 (hCX3CR1 [1]) of 4.1 µM, an EC50 (hCX3CR1 [2]) of 11 µM and an EC50 (rCX3CR1) of 14.9 µM. For the same molecule, the EC50 (mCX3CR1) was 11.8 µM.
Work on `CCN(CC)CC(C)(C)CNC(=O)c1cc2c(s1)CCCCCC2` [Example 16, N-[3-(diethylamino)-2,2-dimethylpropyl]-4,5,6,7,8,9-hexahydrocycloocta[b]thiophene-2-carboxamide] yielded an EC50 (hCX3CR1 [1]) of 6.6 µM, an EC50 (hCX3CR1 [2]) of 13.6 µM and an EC50 (rCX3CR1) of 19.7 µM. The EC50 (mCX3CR1) was 103 µM.
In the case of `O=C(NCC1(CN2CCCC2)CCOCC1)c1cc2c(s1)CCCCCC2` [Example 20, N-[[4-(pyrrolidin-1-ylmethyl)oxan-4-yl]methyl]-4,5,6,7,8,9-hexahydrocycloocta[b]thiophene-2-carboxamide], the EC50 (hCX3CR1 [1]) is reported as 1.7 µM, the EC50 (hCX3CR1 [2]) is reported as 8.8 µM and the EC50 (rCX3CR1) is reported as 19.2 µM. The EC50 (mCX3CR1) was 20.9 µM.
Work on `CN(C)CC1(CNC(=O)c2ccc3c(c2)CCCCCC3)CCCC1` [Example 33, N-[[1-[(dimethylamino)methyl]cyclopentyl]methyl]-5,6,7,8,9,10-hexahydrobenzo[8]annulene-3-carboxamide] yielded an EC50 (hCX3CR1 [1]) of 4 µM, an EC50 (hCX3CR1 [2]) of 17.4 µM and an EC50 (rCX3CR1) of 22.7 µM. It also gave an EC50 (mCX3CR1) of 44.4 µM.
Work on `CN(C)CC1(CNC(=O)c2cc3c(s2)CCCCCC3)CCOCC1` [Example 19, N-[[4-[(dimethylamino)methyl]oxan-4-yl]methyl]-4,5,6,7,8,9-hexahydrocycloocta[b]thiophene-2-carboxamide] yielded an EC50 (hCX3CR1 [1]) of 1.9 µM, an EC50 (hCX3CR1 [2]) of 14.3 µM and an EC50 (rCX3CR1) of 27.9 µM. For the same molecule, the EC50 (mCX3CR1) was 30.6 µM.
`O=C(NCC1(CN2CCCC2)CCC1)c1cc2c(s1)CCCCCCC2` [Example 26, N-[[1-(pyrrolidin-1-ylmethyl)cyclobutyl]methyl]-5,6,7,8,9,10-hexahydro-4H-cyclonona[b]thiophene-2-carboxamide] showed an EC50 (hCX3CR1 [1]) of 4.3 µM, an EC50 (hCX3CR1 [2]) of 27.3 µM and an EC50 (rCX3CR1) of 46.7 µM. The EC50 (mCX3CR1) was 58.1 µM.
`CCC(CC)(CNC(=O)c1cc2c(s1)CCCCCC2)CN(C)C` [Example 8, N-[2-[(dimethylamino)methyl]-2-ethylbutyl]-4,5,6,7,8,9-hexahydrocycloocta[b]thiophene-2-carboxamide] showed an EC50 (hCX3CR1 [1]) of 11.2 µM, an EC50 (hCX3CR1 [2]) of 16.2 µM and an EC50 (rCX3CR1) of 20 µM. It also gave an EC50 (mCX3CR1) of 17.1 µM.
For `O=C(NCC1(CN2CCC2)CCCC1)c1cc2c(s1)CCCCCC2` [Example 14, N-[[1-(azetidin-1-ylmethyl)cyclopentyl]methyl]-4,5,6,7,8,9-hexahydrocycloocta[b]thiophene-2-carboxamide], the EC50 (hCX3CR1 [1]) was 1.6 µM, the EC50 (hCX3CR1 [2]) was 9.1 µM and the EC50 (rCX3CR1) was 9.3 µM. It also gave an EC50 (mCX3CR1) of 15.2 µM.
`CN(CCO)CC1(CNC(=O)c2cc3c(s2)CCCCCC3)CCCC1` [Example 17, N-[[1-[[2-hydroxyethyl(methyl)amino]methyl]cyclopentyl]methyl]-4,5,6,7,8,9-hexahydrocycloocta[b]thiophene-2-carboxamide] was tested, and the EC50 (hCX3CR1 [1]) was 1.3 µM, the EC50 (hCX3CR1 [2]) was 11.8 µM and the EC50 (rCX3CR1) was 15.7 µM. For the same molecule, the EC50 (mCX3CR1) was 18.2 µM.
